{"source": "patent US9351998B2", "about": "“Methods of nourishing animals” (MariCal, Inc., priority 2008, dated 2016)", "test_system": "avian CaSR", "experiment": "FURA2 ratio imaging fluorimetry of HEK cells stably expressing avian (chicken) CaSR", "assay_type": "cell-based", "description": "All methods and equipment utilized to perform experiments on HEK cells have been reported previously (Gama, L. and Breitwieser, G. E. 1998. A carboxyl-terminal domain controls the cooperativity for extracellular Ca2+ activation of the human calcium sensing receptor. A study with receptor-green fluorescent protein fusions. J. Biol. Chem. 273, 29712-29718; Bai, M., Quinn, S., Trivedi, S., Kifor, 0., Pearce, S. H., Pollak, M. R., Krapcho, K., Hebert, S. C. and Brown, E. M. 1996. Expression and characterization of inactivating and activating mutations in the human Ca2+o-sensing receptor. J. Biol. Chem. 271, 19537-19544). Untransfected HEK cells or, alternatively, cells transfected and expressing CaSR protein were cultured in Dulbecco's Modified Eagle Medium containing 10% fetal bovine serum and 1% penicillin-streptomycin in 75 cm^2 flasks until they reached confluence. Media was removed from the flasks and cells were loaded by exposure to Loading Buffer (125 mM NaCl, 4 mM KCl, 1.0 mMCaCl2, 1.0 mM MgCl2, 1 mM NaH2PO4, 20 mM HEPES, 1 gm/liter bovine serum albumin, and 1 gm/l glucose, pH ˜7.4, osmolality ˜285) containing 4.1 micromolar FURA2-AM (Molecular Probes Inc. Eugene, Oreg.) for 2 hr. Cells were then scraped from the surface of the flask using a standard cell scraper (Costar 3010, Corning Inc.). Cells were then pelleted from the suspension by low speed centrifugation to remove loading buffer and rinsed twice to remove extracellular FURA2 dye by two sequential suspensions and pelleting steps using low speed centrifugation. Immediately prior to the start of the experiment, cells were resuspended in various experimental buffers for analyses as described below. The Standard Experimental Buffer used for many studies was composed of: 125 mM NaCl, 4 mM KCl, 0.5 mMCaCl2, 0.5 mM MgCl2, 20 mM HEPES, 1 g/l glucose, pH ˜7.4, osmolality ˜285. All other buffers were variations on this basic composition where specific components within the Standard Experimental Buffer were varied while the remaining components were held constant.\nCell suspensions consisting of a total volume of 3 ml were analyzed in a PTI fluorimeter (PTI Model 814 Photomultiplier Detection System equipped with SC-500 Shutter Controller and PTI Driver and Analysis Software) within approximately 20 min after exposure to experimental buffers. Data was acquired using standard ratio image analysis as described previously using a data acquisition rate of 1.3 sec. for 500 or 1000 second intervals.\nIn selected experiments, the detergent Triton X-100 was added in order to lyse the cells and quantify differences in FURA2 ratio fluorescence. Triton X-100 was added to the cells to obtain a maximal fluorescence signal from the FURA2 for purposes of quantification.\nThe ability of the CaSR modulator MC0100 to potentiate the response of avian and mammalian CaSRs to the chelated mineral amino acid complex, ZnPro, was tested. For avian CaSR experiments, three individual aliquots from a single pool of HEK cells that stably express the recombinant avian CaSR protein were used for ratio imaging fluorimetry assays of CaSR activation generally as described in Example 6 herein. […] In all aliquots, the detergent Triton X-100 was added as the last addition to lyse the cells (FIG. 29A).\nFrom a single pool of HEK cells stably expressing the avian CaSR, aliquots of cells were removed and analyzed using ratio imaging fluorimetry generally as described in Example 6 herein. After a standard addition of Ca++ to a final concentration of 2.5 mM, either 0.0025%, 0.025% or 0.25% Zinc Proteinate was added followed by a second addition of Ca++ to a final concentration of 7.5 mM. Subsequently, an aliquot of the detergent Triton X-100 was added to lyse the cells. […] The magnitude of the subsequent CaSR response to Ca++ was reduced via increasing Zn Proteinate stimulation.\nFluorimetry analysis was performed on HEK cells expressing the recombinant chicken CaSR protein generally as described in Example 6 herein."}
{"compound": "COc1cccc([C@@H](C)NCCCc2ccccc2)c1", "note": "[MC0100]", "values": [{"measurement": "effect of prior modulator on CaSR response to 0.25% Mintrex Zn", "setting": "1 micromolar MC0100, buffer 1.5 mM Ca2+", "result": "potentiated the response"}, {"measurement": "effect of modulator on CaSR response to ZnPro", "setting": "MC0100 added before ZnPro", "result": "potentiates the response"}, {"measurement": "CaSR response to the modulator itself", "setting": "MC0100 at final 1 micromolar, buffer 1.5 mM Ca2+", "result": "yielded a response"}, {"measurement": "CaSR response to stepwise additions", "setting": "after addition of 2.5 mM Ca++ (FIG. 36)", "result": "increased responses"}]}
